The text below walks through data of patent US20240132480A1, “INHIBITORS OF MYCOBACTERIUM TUBERCULOSIS LIPOAMIDE DEHYDROGENASE” (Cornell University, priority 2021, published 2024).

Like-named read-outs stand apart in the source and are kept apart here.

The target of one data set is Mtb Lpd (Mycobacterium tuberculosis (strain ATCC 25618 / H37Rv), UniProt P9WHH9). It is filed as biochemical.
For data set [1] the following is noted: microsomes.
The mark [2] stands for this setting: 30 min preincubation, read-out: LPD IC50 (μM) w/ 30 min preincubation.

For `Cc1cc(S(=O)(=O)N(C)CC(=O)Nc2ccc3c(c2)OCCN3C2CCOCC2)c2n[nH]c(F)c2c1` [Example 121], on Mtb Lpd (read-out: LPD IC50), the IC50 was determined as 0.0253 µM. Besides, the “Human Liver Microsome Stability” value in data set [1] was determined as 125 µL/min/mg.
On to `Cc1cc(NC(=O)CN(C)S(=O)(=O)c2c(C)c(C)cc3cn[nH]c23)ccc1N1CCOCC1` [Example 19], for which the IC50 at Mtb Lpd (read-out: LPD IC50) turned out to be 0.0469 µM. The “Human Liver Microsome Stability” value in data set [1] is 253 µL/min/mg.
In the case of `CN(CC(=O)Nc1ccn(C)c(=O)c1)S(=O)(=O)c1cc(Cl)cc2c(F)n[nH]c12` [Example 150], the IC50 on Mtb Lpd (read-out: LPD IC50) was 0.046 µM. In data set [1], the “Human Liver Microsome Stability” value was determined as 1 µL/min/mg.
In the case of `Cc1cc(S(=O)(=O)N(C)CC(=O)Nc2ccn(C)c(=O)c2)c2[nH]ccc2c1` [Example 23], the IC50 on Mtb Lpd (read-out: LPD IC50) is 0.0993 µM. Also, the “Human Liver Microsome Stability” value in data set [1] is 19 µL/min/mg.
On to `Cc1cc(S(=O)(=O)N2CC[C@H]2C(=O)Nc2ccc(N3CCN(C)CC3)c(Cl)c2)c2[nH]ncc2c1` [Example 153, (S)—N-(3-chloro-4-(4-methylpiperazin-1-yl)phenyl)-1-((5-methyl-1H-indazol-7-yl)sulfonyl)azetidine-2-carboxamide], for which the IC50 at Mtb Lpd (read-out: LPD IC50) is 0.048 µM. Besides, the “Human Liver Microsome Stability” value in data set [1] is 113 µL/min/mg.
As to `CN(CC(=O)Nc1ccc2c(c1)OCCN2C1CCOCC1)S(=O)(=O)c1cc(Cl)cc2cn[nH]c12` [Example 166], the IC50 on Mtb Lpd (read-out: LPD IC50) came out at 0.034 µM. The “Human Liver Microsome Stability” value in data set [1] was 122 µL/min/mg.
For `CCn1ccc(NC(=O)CN(C)S(=O)(=O)c2cc(C)cc3cn[nH]c23)cc1=O` [Example 14, 2-((N,5-dimethyl-1H-indazole)-7-sulfonamido)-N-(1-ethyl-2-oxo-1,2-dihydropyridin-4-yl)acetamide] the same measures were 0.0531 µM and -12 µL/min/mg.
The matching figures for `Cc1cc(S(=O)(=O)N(C)CC(=O)Nc2ccn(C3COC3)c(=O)c2)c2[nH]ncc2c1` [Example 99]: 0.056 µM and 17 µL/min/mg.
On to `CNCc1n[nH]c2c(S(=O)(=O)N(C)CC(=O)Cc3ccn(C)c(=O)c3)cc(C)cc12` [Example 44], for which the IC50 on Mtb Lpd (read-out: LPD IC50) turned out to be 0.13 µM. For the same molecule, the “Human Liver Microsome Stability” value in data set [1] was -2 µL/min/mg.
With `CC#CCNC(=O)CN(C)S(=O)(=O)c1cc(C)cc2cn[nH]c12` [Example 204], the IC50 on Mtb Lpd (setting [2]) turned out to be 0.024 µM; on Mtb Lpd (read-out: LPD IC50), 0.045 µM. For the same molecule, in data set [1], the “Human Liver Microsome Stability” value was found to be 19 µL/min/mg.
Turning to `Cc1cc(S(=O)(=O)N(C)CC(=O)NCC#Cc2ccccc2)c2[nH]ncc2c1` [Example 203], the IC50 at Mtb Lpd (read-out: LPD IC50) was 0.043 µM. In data set [1], the “Human Liver Microsome Stability” value was 129 µL/min/mg.
For `Cc1cc(S(=O)(=O)N2CCC[C@H]2C(=O)Nc2ccn(C)c(=O)c2)c2[nH]ncc2c1` [Example 7], at Mtb Lpd (read-out: LPD IC50), the IC50 came to 0.0513 µM. Besides, the “Human Liver Microsome Stability” value in data set [1] was 18 µL/min/mg.
On to `Cc1cc(NC(=O)CN(C)S(=O)(=O)c2cc(C3CC3)cc3cn[nH]c23)ccc1N1CCOCC1` [Example 34], for which the IC50 on Mtb Lpd (read-out: LPD IC50) was determined as 0.0067 µM. In addition, in data set [1], the “Human Liver Microsome Stability” value is 203 µL/min/mg.
For the molecule `Cc1cc(S(=O)(=O)N(CC(=O)NC2=CC(=O)C(C)C=C2)C(C)C)c2[nH]ncc2c1` (stereo not drawn) [Example 47], at Mtb Lpd (read-out: LPD IC50), the IC50 worked out at 0.434 µM. The “Human Liver Microsome Stability” value in data set [1] was -9 µL/min/mg.
Consider `CCN(CC(=O)Nc1ccc2c(c1)OCCN2C(C)(C)CO)S(=O)(=O)c1cc(C)cc2cn[nH]c12` [Example 145, 2-((N-ethyl-5-methyl-1H-indazole)-7-sulfonamido)-N-(4-(1-hydroxy-2-methylpropan-2-yl)-3,4-dihydro-2H-benzo[b][1,4]oxazin-7-yl)acetamide], for which the IC50 on Mtb Lpd (read-out: LPD IC50) came to 0.039 µM. In data set [1], the “Human Liver Microsome Stability” value came out at 92 µL/min/mg.
In the case of `Cc1cc(S(=O)(=O)N2CC[C@H]2C(=O)Nc2ccc(OCCN(C)C)c(Cl)c2)c2[nH]ncc2c1` [Example 199], the figures for the IC50 at Mtb Lpd (setting [2]) and on Mtb Lpd (read-out: LPD IC50) were 0.045 µM and 0.186 µM, respectively. The “Human Liver Microsome Stability” value in data set [1] is -7 µL/min/mg.
With `Cc1cc(S(=O)(=O)N2CCC[C@@H](C(=O)Nc3ccc4c(c3)OCCN4C3COC3)C2)c2[nH]ncc2c1` [Example 170, N-1-((5-methyl-1H-indazol-7-yl)sulfonyl)-N-(4-(oxetan-3-yl)-3,4-dihydro-2H-benzo[b][1,4]oxazin-7-yl)piperidine-3-carboxamide], the IC50 on Mtb Lpd (read-out: LPD IC50) came to 0.051 µM. Further, in data set [1], the “Human Liver Microsome Stability” value was 34 µL/min/mg.
For `Cc1cc(S(=O)(=O)N(C)CC(=O)Nc2ccc3c(c2)OCCO3)c2[nH]ncc2c1` [Example 29], the IC50 at Mtb Lpd (read-out: LPD IC50) was 0.0109 µM. For the same molecule, the “Human Liver Microsome Stability” value in data set [1] is 76 µL/min/mg.
Turning to `Cc1cc(S(=O)(=O)N2CC[C@H]2C(=O)Nc2ccc3c(c2)OCCN3C2COC2)c2n[nH]cc2c1` [Example 143], the IC50 on Mtb Lpd (read-out: LPD IC50) was determined as 0.0362 µM. Also, in data set [1], the “Human Liver Microsome Stability” value is 84 µL/min/mg.
In the case of `Cc1cc(S(=O)(=O)N2CC[C@H]2C(=O)Nc2ccc3ncccc3c2)c2[nH]ncc2c1` [Example 87], the IC50 on Mtb Lpd (read-out: LPD IC50) was 0.035 µM. In data set [1], the “Human Liver Microsome Stability” value was determined as 111 µL/min/mg.
With `Cc1cc(S(=O)(=O)N2CC[C@@H](C(=O)Nc3ccc4c(c3)OCCN4C3COC3)C2)c2[nH]ncc2c1` [Example 123], at Mtb Lpd (read-out: LPD IC50), the IC50 worked out at 0.0286 µM. Also, the “Human Liver Microsome Stability” value in data set [1] turned out to be 23 µL/min/mg.
The matching figures for `Cc1cc(S(=O)(=O)N(C)CC(=O)Nc2ccn3cnnc3c2)c2n[nH]cc2c1` [Example 102]: 0.042 µM and 31 µL/min/mg.
As to `CC(=O)Nc1cccc(NC(=O)CN(C)S(=O)(=O)c2cc(C)cc3cc(C#N)[nH]c23)c1` [Example 217], the IC50 at Mtb Lpd (setting [2]) amounted to 0.028 µM. Moreover, the “Human Liver Microsome Stability” value in data set [1] was determined as 177 µL/min/mg.
With `Cc1cc(S(=O)(=O)N2CC[C@@H]2C(=O)Nc2ccn(C)c(=O)c2)c2[nH]c(C#N)cc2c1` [Example 188, (R)-1-((2-cyano-5-methyl-1H-indol-7-yl)sulfonyl)-N-(1-methyl-2-oxo-1,2-dihydropyridin-4-yl)azetidine-2-carboxamide], the IC50 on Mtb Lpd (read-out: LPD IC50) amounted to 8.85 µM. The “Human Liver Microsome Stability” value in data set [1] came out at 5 µL/min/mg.
The matching figures for `CN(CC(=O)Nc1ccc2c(c1)OCCN2C1CCOCC1)S(=O)(=O)c1cc(C(F)F)cc2cn[nH]c12` [Example 171, 2-((5-(difluoromethyl)-N-methyl-1H-indazole)-7-sulfonamido)-N-(4-(tetrahydro-2H-pyran-4-yl)-3,4-dihydro-2H-benzo[b][1,4]oxazin-7-yl)acetamide]: 0.078 µM and 102 µL/min/mg.
On to `Cn1ccc(NC(=O)[C@@H]2CCN2S(=O)(=O)c2cc(Cl)cc3cn[nH]c23)cc1=O` [Example 149], for which the IC50 on Mtb Lpd (read-out: LPD IC50) was 0.061 µM. In addition, in data set [1], the “Human Liver Microsome Stability” value amounted to 14 µL/min/mg.
Consider `Cc1cc(S(=O)(=O)N(C)CC(=O)Nc2ccn3nccc3c2)c2[nH]ncc2c1` [Example 25], for which the IC50 at Mtb Lpd (read-out: LPD IC50) is 0.0204 µM. In data set [1], the “Human Liver Microsome Stability” value was 275 µL/min/mg.
The matching figures for `Cn1ccc(NC(=O)[C@@H]2CCN2S(=O)(=O)c2cc(C=O)cc3c(F)n[nH]c23)cc1=O` [Example 186, (S)-1-((3-fluoro-5-formyl-1H-indazol-7-yl)sulfonyl)-N-(1-methyl-2-oxo-1,2-dihydropyridin-4-yl)azetidine-2-carboxamide]: 1.04 µM and 153 µL/min/mg.
As to `Cc1cc(S(=O)(=O)N(C)CC(=O)Nc2ccc(C3CC3)c(Cl)c2)c2[nH]c(C#N)cc2c1` [Example 215], the IC50 at Mtb Lpd (setting [2]) amounted to 0.036 µM. In addition, the “Human Liver Microsome Stability” value in data set [1] came to 203 µL/min/mg.
